This passage reports EC50 and normalised dose-response curve results from article PMC10779170, “Identification of 2,4-Di-tert-butylphenol as a Novel Agonist for Insect Odorant Receptors” (International Journal of Molecular Sciences, 2023).

In general, EC50 refers to the concentration needed to bring the measured effect to its halfway point.

What all share (test): two-electrode voltage clamp, Xenopus oocytes
What all share (type): cell-based

Test [1] concerns the target T1, ORCO + Or1a (Drosophila melanogaster, UniProt Q9VNB5).
T1 construct: heteromer; cRNAs co-injected in Xenopus laevis oocytes (pGEM-HE); for DTBP, site on Orco; with Odorant receptor 1a
T1 sequence (Q9VNB5 1-486): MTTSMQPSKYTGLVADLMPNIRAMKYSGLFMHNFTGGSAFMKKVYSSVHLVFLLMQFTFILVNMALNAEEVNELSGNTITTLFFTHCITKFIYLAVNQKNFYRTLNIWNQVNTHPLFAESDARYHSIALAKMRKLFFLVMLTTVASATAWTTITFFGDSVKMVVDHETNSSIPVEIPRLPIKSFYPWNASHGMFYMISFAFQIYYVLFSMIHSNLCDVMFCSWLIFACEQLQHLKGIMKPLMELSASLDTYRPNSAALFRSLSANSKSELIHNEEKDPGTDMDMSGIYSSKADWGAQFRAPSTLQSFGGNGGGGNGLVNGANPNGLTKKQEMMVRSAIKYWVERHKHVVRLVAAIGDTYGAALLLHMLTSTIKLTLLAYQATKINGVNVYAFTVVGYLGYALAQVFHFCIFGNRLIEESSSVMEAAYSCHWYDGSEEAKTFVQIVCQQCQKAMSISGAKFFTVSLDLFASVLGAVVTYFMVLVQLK
T1 sequence (Q9W5G6 1-392 partner): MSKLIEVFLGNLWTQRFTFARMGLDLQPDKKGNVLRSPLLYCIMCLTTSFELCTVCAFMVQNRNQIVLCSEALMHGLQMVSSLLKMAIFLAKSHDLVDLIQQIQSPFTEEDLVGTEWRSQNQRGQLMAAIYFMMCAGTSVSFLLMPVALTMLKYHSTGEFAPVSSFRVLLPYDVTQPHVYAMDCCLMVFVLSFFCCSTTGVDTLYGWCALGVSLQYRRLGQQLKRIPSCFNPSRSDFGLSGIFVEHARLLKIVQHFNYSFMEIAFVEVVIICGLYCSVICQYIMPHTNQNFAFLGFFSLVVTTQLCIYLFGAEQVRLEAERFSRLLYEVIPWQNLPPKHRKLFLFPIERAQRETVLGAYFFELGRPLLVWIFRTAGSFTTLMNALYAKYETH
The note with it: agonist; holding potential -80 mV, ND96 pH 7.4, room temperature; unit inferred, μM from text for the ORCO row. From the text:
two-electrode voltage clamp, Xenopus oocytes on ORCO + Or1a

Test [2] concerns the target T2, ORCO + Or24a (Drosophila melanogaster, UniProt Q9VNB5).
T2 construct: heteromer; cRNAs co-injected in Xenopus laevis oocytes (pGEM-HE); for DTBP, site on Orco; with Odorant receptor 24a
T2 sequence (Q9VNB5 1-486): T1 sequence (Q9VNB5 1-486)
T2 sequence (P81913 1-398 partner): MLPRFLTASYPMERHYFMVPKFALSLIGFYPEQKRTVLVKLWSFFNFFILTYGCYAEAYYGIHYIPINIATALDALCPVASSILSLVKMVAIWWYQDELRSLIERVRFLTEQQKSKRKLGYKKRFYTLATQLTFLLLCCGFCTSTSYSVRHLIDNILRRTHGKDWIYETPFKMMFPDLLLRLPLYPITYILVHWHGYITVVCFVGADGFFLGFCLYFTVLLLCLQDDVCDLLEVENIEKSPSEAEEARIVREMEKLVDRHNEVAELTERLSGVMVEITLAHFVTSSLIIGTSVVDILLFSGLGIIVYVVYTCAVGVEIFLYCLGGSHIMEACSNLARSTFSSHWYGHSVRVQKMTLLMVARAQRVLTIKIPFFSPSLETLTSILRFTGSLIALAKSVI
Conditions: agonist; holding potential -80 mV, ND96 pH 7.4, room temperature. The text has this: two-electrode voltage clamp, Xenopus oocytes on ORCO + Or24a

A further test addresses T3, Orco homomeric receptor (Drosophila melanogaster, UniProt Q9VNB5).
T3 construct: synthesised cDNA in pGEM-HE, cRNA injected in Xenopus laevis oocytes; homotetramer
T3 sequence (Q9VNB5 1-486): T1 sequence (Q9VNB5 1-486)
The note with it: agonist; holding potential -80 mV, ND96 pH 7.4, room temperature.

For test [3], the target named is T4, ORCO + Or35a (Drosophila melanogaster, UniProt Q9VNB5).
T4 construct: heteromer; cRNAs co-injected in Xenopus laevis oocytes (pGEM-HE); for DTBP, site on Orco; with Odorant receptor 35a
T4 sequence (Q9VNB5 1-486): T1 sequence (Q9VNB5 1-486)
T4 sequence (Q9V3Q2 1-409 partner): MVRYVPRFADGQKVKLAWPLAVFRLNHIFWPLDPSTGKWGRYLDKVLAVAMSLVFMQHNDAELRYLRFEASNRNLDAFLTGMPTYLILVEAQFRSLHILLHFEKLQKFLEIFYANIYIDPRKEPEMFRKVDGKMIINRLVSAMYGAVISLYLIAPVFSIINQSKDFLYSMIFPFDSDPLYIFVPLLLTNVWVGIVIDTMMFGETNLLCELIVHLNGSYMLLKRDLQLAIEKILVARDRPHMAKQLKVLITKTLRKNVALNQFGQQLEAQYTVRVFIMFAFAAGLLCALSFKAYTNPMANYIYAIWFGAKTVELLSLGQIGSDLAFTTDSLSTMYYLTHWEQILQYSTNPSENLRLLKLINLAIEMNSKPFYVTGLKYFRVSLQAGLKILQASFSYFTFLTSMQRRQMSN
The note with it: agonist; holding potential -80 mV, ND96 pH 7.4, room temperature. The text has this: two-electrode voltage clamp, Xenopus oocytes on ORCO + Or35a

In test [4] the target is T5, Orco + Or1a (Drosophila melanogaster, UniProt Q9W5G6).
T5 construct: same complex as P2, site on OrX; with Odorant receptor coreceptor
T5 sequence (Q9W5G6 1-392): T1 sequence (Q9W5G6 1-392 partner)
T5 sequence (Q9VNB5 1-486 partner): T1 sequence (Q9VNB5 1-486)
Conditions: agonist; 0.3 μM in Figure 2B; holding potential -80 mV, ND96 pH 7.4.

Test [5] concerns the target T6, Orco + Or35a (Drosophila melanogaster, UniProt Q9V3Q2).
T6 construct: same complex as P4, site on OrX; with Odorant receptor coreceptor
T6 sequence (Q9V3Q2 1-409): T4 sequence (Q9V3Q2 1-409 partner)
T6 sequence (Q9VNB5 1-486 partner): T1 sequence (Q9VNB5 1-486)
Conditions: agonist; 10 μM in Figure 2D; holding potential -80 mV, ND96 pH 7.4.

The target of test [6] is T7, Orco + Or24a (Drosophila melanogaster, UniProt P81913).
T7 construct: same complex as P3, site on OrX; with Odorant receptor coreceptor
T7 sequence (P81913 1-398): T2 sequence (P81913 1-398 partner)
T7 sequence (Q9VNB5 1-486 partner): T1 sequence (Q9VNB5 1-486)
Conditions: agonist; 0.3 μM in Figure 2C; holding potential -80 mV, ND96 pH 7.4.

Molecules are shown by their SMILES.

With `CC(C)(C)c1ccc(O)c(C(C)(C)C)c1` [2,4-di-tert-butylphenol], the EC50 on ORCO + Or1a [1] was 104 ± 27.7 µM; on ORCO + Or24a [2] it was 51 ± 8.2 µM; at Orco homomeric receptor it was 13.4 ± 3 µM; on ORCO + Or35a [3] it was 38.1 ± 3.8 µM.

For the molecule `CCCCCC(C)=O` [2-heptanone], the normalised dose-response curve result on Orco + Or1a [4] was “illustrate the normalized activation of DTBP and other odorants for each heteromeric receptor”.

Consider `CCCCC(C)O` (stereo not shown) [2-hexanol], for which the normalised dose-response curve entry on Orco + Or35a [5] was “illustrate the normalized activation of DTBP and other odorants for each heteromeric receptor”.

Consider `CCCCCCCCO` [octanol], for which the normalised dose-response curve result at Orco + Or24a [6] is “illustrate the normalized activation of DTBP and other odorants for each heteromeric receptor”.
